Results on twelve compounds are retold here after patent EP0918774B9, “ANDROGEN RECEPTOR MODULATOR COMPOUNDS AND METHODS” (LIGAND PHARMACEUTICALS INCORPORATED, priority 1996, dated 1997).

A word on the Ki: it is the dissociation constant of the complex between target and ligand, obtained from inhibition or displacement. Low values mean higher affinity, high ones lower affinity. A word on the IC50: it is the concentration needed to halve the response being measured. A lower IC50 goes with inhibition by little substance.

The target in experiment [1] is T1, human AR (Homo sapiens, UniProt P10275).
T1 construct: expressed in transfected cells; host or cells: CV-1 cells (African green monkey kidney fibroblasts), transient calcium phosphate transfection
T1 sequence (P10275 1-920): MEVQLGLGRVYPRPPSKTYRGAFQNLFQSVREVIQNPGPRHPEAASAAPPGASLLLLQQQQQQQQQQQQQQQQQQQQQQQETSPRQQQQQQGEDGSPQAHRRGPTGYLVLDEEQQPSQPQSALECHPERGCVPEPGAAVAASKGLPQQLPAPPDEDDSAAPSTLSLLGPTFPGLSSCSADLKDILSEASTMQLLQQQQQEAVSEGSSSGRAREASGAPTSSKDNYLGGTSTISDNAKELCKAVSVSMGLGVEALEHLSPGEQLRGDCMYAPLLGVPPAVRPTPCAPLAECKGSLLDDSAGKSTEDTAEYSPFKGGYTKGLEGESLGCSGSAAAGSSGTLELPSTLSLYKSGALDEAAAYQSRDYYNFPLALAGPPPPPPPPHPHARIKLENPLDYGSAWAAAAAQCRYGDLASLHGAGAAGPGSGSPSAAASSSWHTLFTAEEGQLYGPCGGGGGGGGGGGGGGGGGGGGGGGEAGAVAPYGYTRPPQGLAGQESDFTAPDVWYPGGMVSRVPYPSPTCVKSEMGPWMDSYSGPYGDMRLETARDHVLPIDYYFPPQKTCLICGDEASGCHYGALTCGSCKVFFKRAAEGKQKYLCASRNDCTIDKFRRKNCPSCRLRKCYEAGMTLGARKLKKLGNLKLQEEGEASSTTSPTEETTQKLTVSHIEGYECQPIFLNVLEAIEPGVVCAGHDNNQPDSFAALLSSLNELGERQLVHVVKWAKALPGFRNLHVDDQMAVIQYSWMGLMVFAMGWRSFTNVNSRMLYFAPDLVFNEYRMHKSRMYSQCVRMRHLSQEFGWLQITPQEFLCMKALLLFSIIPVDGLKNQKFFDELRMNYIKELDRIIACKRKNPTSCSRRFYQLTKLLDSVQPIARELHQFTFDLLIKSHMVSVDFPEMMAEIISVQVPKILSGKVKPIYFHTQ
Description: cell-based. The class given is cell-based. As to conditions: for AR Antagonist CV-1 Cells Efficacy (%): % of maximal inhibition, fixed DHT at EC50; for AR Agonist CV-1 Cells Efficacy (%): percent maximal response relative to reference agonist DHT; for AR agonist/antagonist profile (in words): co-transfection assay, summary of Tables 1-2. An excerpt:
The co-transfection assay provides a method for identifying functional agonists and partial agonists which mimic, or antagonists which inhibit, the effect of native hormones, and quantifying their activity for responsive IR proteins. In this regard, the co-transfection assay mimics an in vivo system in the laboratory. Importantly, activity in the co-transfection assay correlates very well with known in vivo activity, such that the co-transfection assay functions as a qualitative and quantitative predictor of a tested compounds in vivo pharmacology. See, e.g., T. Berger et al. 41 J. Steroid Biochem. Molec.
(§1) CV-1 cells (African green monkey kidney fibroblasts) were cultured in the presence of Dulbecco's Modified Eagle Medium (DMEM) supplemented with 10% charcoal resinstripped fetal bovine serum then transferred to 96-well microtiter plates one day prior to transfection.
The reporter plasmid, MTV-LUC, contains the cDNA for firefly luciferase (LUC) under control of the mouse mammary tumor virus (MTV) long terminal repeat, a conditional promoter containing an androgen response element. See e.g, Berger et al. supra. In addition, pRS-β-Gal, coding for constitutive expression of E. colβ-galactosidase (β-Gal), was included as an internal control for evaluation of transfection efficiency and compound toxicity.
(§2) Three to four replicates were used for each sample.
(§3) After 40 hours, the cells were washed with PBS, lysed with a Triton X-100-based buffer and assayed for LUC and β-Gal activities using a luminometer or spectrophotometer, respectively. For each replicate, the normalized response (NR) was calculated as: LUC response/β-Gal rate where β-Gal rate = β-Gal•1x10^-5/β-Gal incubation time.

For experiment [2], the target named is T1, human AR. Description: cell-based. The experiment is classed as binding.
Experiment [3] deals with T2, PR (Homo sapiens, UniProt P06401).
T2 sequence (P06401 1-933): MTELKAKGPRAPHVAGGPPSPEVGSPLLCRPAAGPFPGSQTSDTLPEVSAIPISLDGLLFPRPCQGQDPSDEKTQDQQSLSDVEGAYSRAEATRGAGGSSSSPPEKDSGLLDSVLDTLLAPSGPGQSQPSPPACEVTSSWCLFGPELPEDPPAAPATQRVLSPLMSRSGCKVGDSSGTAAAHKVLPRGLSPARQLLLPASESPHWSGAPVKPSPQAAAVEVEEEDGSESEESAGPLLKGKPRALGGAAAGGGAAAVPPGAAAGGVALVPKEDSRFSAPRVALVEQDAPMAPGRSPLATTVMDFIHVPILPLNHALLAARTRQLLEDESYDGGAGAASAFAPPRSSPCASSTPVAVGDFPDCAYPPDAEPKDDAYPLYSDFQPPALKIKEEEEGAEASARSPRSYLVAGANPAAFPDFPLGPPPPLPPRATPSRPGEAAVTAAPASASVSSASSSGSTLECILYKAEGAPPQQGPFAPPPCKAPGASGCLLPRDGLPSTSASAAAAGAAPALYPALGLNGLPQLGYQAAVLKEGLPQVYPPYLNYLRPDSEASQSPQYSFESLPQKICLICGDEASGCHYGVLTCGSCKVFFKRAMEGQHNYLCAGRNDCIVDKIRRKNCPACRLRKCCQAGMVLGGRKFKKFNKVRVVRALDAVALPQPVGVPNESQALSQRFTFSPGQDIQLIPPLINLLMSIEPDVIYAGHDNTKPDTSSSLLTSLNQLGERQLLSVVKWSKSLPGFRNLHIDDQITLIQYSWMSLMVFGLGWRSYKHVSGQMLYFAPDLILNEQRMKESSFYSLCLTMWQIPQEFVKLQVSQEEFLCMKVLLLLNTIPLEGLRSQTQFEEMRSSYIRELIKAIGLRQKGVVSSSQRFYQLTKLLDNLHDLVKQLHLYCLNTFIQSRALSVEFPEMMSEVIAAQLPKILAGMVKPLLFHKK
Description: Co-transfection assay, PR agonist mode. The class given is cell-based. On the set-up: expressed in transfected cells; host or cells: CV-1 cells. As for the experimental part: as §1, §2, §3

Where two headings read alike, the source gives them in different places. A value given as a limit tells only on which side of the number the result lay.

Regarding `Cn1c(=O)c(F)c(C(F)(F)F)c2cc3c(cc21)N1CCCC1(C)CC3` (racemic) [Compound 104, (R/S)-3-Fluoro-6,7,7a,11-tetrahydro-1,7a-dimethyl-4-trifluoromethyl-2-pyridono[5.6-g]pyrrolidino[1,2-a]quinoline], the EC50 in experiment [1] is > 10000 nM; in experiment [1] (read-out: AR Potency Agon, Table 2, na = not active), > 10000 nM; in experiment [3], > 10000 nM. Besides, the “AR Antagonist CV-1 Cells Efficacy (%)” value in experiment [1] (na = not active) came out at 86%. Moreover, the “AR Agonist CV-1 Cells Efficacy (%)” value in experiment [1] (na = not active) was “na (not active (i.e. efficacy of <20 and potency of >10,000))”. Besides, the affinity in experiment [2] corresponds to a Ki of 159 nM.
Take `CC1(C)CCc2cc3c(C(F)F)c(F)c(=O)[nH]c3cc2N1` [Compound 106, 6-Difluoromethyl-7-fluoro-1,2,3,4-tetrahydro-2,2-dimethyl-8-pyridono[5,6-g]quinoline]: in experiment [1], the EC50 was > 10000 nM and the IC50 was found to be 60 nM. For the same compound, in experiment [1] (na = not active), the “AR Antagonist CV-1 Cells Efficacy (%)” value came out at 83%; the “AR Agonist CV-1 Cells Efficacy (%)” value is “na (not active (i.e. efficacy of <20 and potency of >10,000))”.
In the case of `Cn1c(=O)c(F)c(C(F)(F)F)c2cc3c(cc21)NC(C)(C)CC3` [Compound 107, 7-Fluoro-1,2,3,4-tetrahydro-2,2,9-trimethyl-6-trifluoromethyl-8-pyridono[5,6-g]quinoline], in experiment [1], the EC50 was > 10000 nM and 47 nM corresponded to half-maximal inhibition (IC50). Further, in experiment [1] (na = not active), the “AR Antagonist CV-1 Cells Efficacy (%)” value was 79%; the “AR Agonist CV-1 Cells Efficacy (%)” value was “na (not active (i.e. efficacy of <20 and potency of >10,000))”.
As to `CN1c2cc3c(cc2CCC1(C)C)c(C(F)(F)F)c(F)c(=O)n3C` [Compound 109, 7-Fluoro-1,2,3,4-tetrahydro-1,2,2,9-tetramethyl-6-trifluoromethyl-8-pyridono[5,6-g]quinoline], in experiment [1], the EC50 was > 10000 nM, half-maximal inhibition (IC50) required 12 nM and the “AR agonist/antagonist profile (in words)” value was “highly selective AR antagonists”. For the same compound, in experiment [1] (na = not active), the “AR Antagonist CV-1 Cells Efficacy (%)” value stood at 86%; the “AR Agonist CV-1 Cells Efficacy (%)” value is “na (not active (i.e. efficacy of <20 and potency of >10,000))”.
`CC1=CC(C)(C)Nc2cc3[nH]c(=O)c(F)c(C(F)(F)F)c3cc21` [Compound 111, 7-Fluoro-1,2-dihydro-2,2,4-trimethyl-6-trifluoromethyl-8-pyridono[5,6-g]quinoline]: in experiment [1] (na = not active), the “AR Antagonist CV-1 Cells Efficacy (%)” value amounted to 50% and the “AR Agonist CV-1 Cells Efficacy (%)” value is 20%. In addition, the “AR agonist/antagonist profile (in words)” value in experiment [1] was “mixed AR agonists/antagonists”. The compound also showed a Ki in experiment [2] of 804 nM.
As for `CC1CC(C)(C)Nc2cc3[nH]c(=O)c(F)c(C(F)(F)F)c3cc21` (centres unmarked) [Compound 112, 7-Fluoro-1,2,3,4-tetrahydro-2,2,4-trimethyl-6-trifluoromethyl-8-pyridono[5,6-g]quinoline], the “AR Antagonist CV-1 Cells Efficacy (%)” value in experiment [1] (na = not active) amounted to 49%. The “AR agonist/antagonist profile (in words)” value in experiment [1] was “highly selective AR antagonists”.
On to `CC1CC(C)(C)n2oc(=O)c3c4[nH]c(=O)cc(C(F)(F)F)c4cc1c32` (centres unmarked) [Compound 113, 1,10-[1,3-dihydro-3-oxo-(2,1-isoxazolyl)]-1,2,3,4-tetrahydro-2,2,4,10-tetramethyl-6-trifluoromethyl-8-pyridono[5,6-g]quinoline], for which, in experiment [1] (na = not active), the “AR Antagonist CV-1 Cells Efficacy (%)” value amounted to 48% and the “AR Agonist CV-1 Cells Efficacy (%)” value was determined as 26%. Also, the “AR agonist/antagonist profile (in words)” value in experiment [1] is recorded as “mixed AR agonists/antagonists”. The compound also showed a Ki in experiment [2] of 17 nM.
Turning to `CC1=CC(C)(C)Nc2c1cc1c(C(F)(F)F)c(F)c(=O)[nH]c1c2C` [Compound 114, 7-Fluoro-1,2-dihydro-2,2,4,10-tetramethyl-6-trifluoromethyl-8-pyridono[5,6-g]quinoline], the EC50 in experiment [1] is > 10000 nM. Further, in experiment [1] (na = not active), the “AR Antagonist CV-1 Cells Efficacy (%)” value was found to be 90%; the “AR Agonist CV-1 Cells Efficacy (%)” value is “na (not active (i.e. efficacy of <20 and potency of >10,000))”.
On to `Cc1c2c(cc3c(C(F)(F)F)c(F)c(=O)[nH]c13)C(C)CC(C)(C)N2` (centres unmarked) [Compound 115, 7-Fluoro-1,2,3,4-tetrahydro-2,2,4,10-tetramethyl-6-trifluoromethyl-8-pyridono[5,6-g]quinoline], for which, in experiment [1], the EC50 was > 10000 nM and the IC50 came to 101 nM. For the same compound, in experiment [1] (na = not active), the “AR Antagonist CV-1 Cells Efficacy (%)” value is given as 88%; the “AR Agonist CV-1 Cells Efficacy (%)” value is “na (not active (i.e. efficacy of <20 and potency of >10,000))”.
With `Cc1c2c(cc3c(C(F)(F)F)c(F)c(=O)n(C)c13)C(C)CC(C)(C)N2` (centres unmarked) [Compound 116, 7-Fluoro-1,2,3,4-tetrahydro-2,2,4,9,10-pentamethyl-6-trifluoromethyl-8-pyridono[5,6-g]quinoline], the EC50 in experiment [1] was > 10000 nM. For the same compound, in experiment [1] (na = not active), the “AR Antagonist CV-1 Cells Efficacy (%)” value was determined as 20%; the “AR Agonist CV-1 Cells Efficacy (%)” value is “na (not active (i.e. efficacy of <20 and potency of >10,000))”.
For the compound `Cc1c2c(cc3c(C(F)(F)F)c(F)c(=O)[nH]c13)C(C)CC(C)(C)N2C` (centres unmarked) [Compound 117, 7-Fluoro-1,2,3,4-tetrahydro-1,2,2,4,10-pentamethyl-6-trifuluoromethyl-8-pyridono[5,6-g]quinoline], in experiment [1] (na = not active), the “AR Antagonist CV-1 Cells Efficacy (%)” value was found to be 81%; the “AR Agonist CV-1 Cells Efficacy (%)” value is “na (not active (i.e. efficacy of <20 and potency of >10,000))”. Further, in experiment [1] (read-out: AR Agonist CV-1 Cells Potency, agonist potency EC50, na = not active), the EC50 is > 10000 nM.
For `CCC1(CC)CCc2cc3c(C(F)(F)F)c(F)c(=O)[nH]c3cc2N1` [Compound 120, 2,2-Diethyl-7-fluoro-1,2,3,4-tetrahydro-6-trifluoromethyl-8-pyridono[5,6-g]quinoline], the IC50 in experiment [1] was 25 nM. In addition, the “AR Antagonist CV-1 Cells Efficacy (%)” value in experiment [1] (na = not active) came out at 61%.
